In patent US12187742B2 (XRAD Therapeutics, Inc., priority 2018, dated 2025):
Structures can show the parent of a compound that is named as a salt.

Target: ATM (Homo sapiens (Human), UniProt Q13315)
Assay: ATM in Cell Western Assay (pKAP1 in etoposide-treated MCF-7 cells)
Assay type: cell-based
Conditions: MCF-7 cells, etoposide 100 μM, 1 hr, pKAP1 readout
How it was run: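 Cells received compounds in a 10-dose, 3-fold series from a 1 μM final top concentration, then 100 μM etoposide, for 1 hr at 37° C. They were then fixed with paraformaldehyde and permeabilized with 0.1% Triton X-100. After immunostaining, plates were scanned on an infrared imager.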

Chain of ATM (Q13315 whole entry): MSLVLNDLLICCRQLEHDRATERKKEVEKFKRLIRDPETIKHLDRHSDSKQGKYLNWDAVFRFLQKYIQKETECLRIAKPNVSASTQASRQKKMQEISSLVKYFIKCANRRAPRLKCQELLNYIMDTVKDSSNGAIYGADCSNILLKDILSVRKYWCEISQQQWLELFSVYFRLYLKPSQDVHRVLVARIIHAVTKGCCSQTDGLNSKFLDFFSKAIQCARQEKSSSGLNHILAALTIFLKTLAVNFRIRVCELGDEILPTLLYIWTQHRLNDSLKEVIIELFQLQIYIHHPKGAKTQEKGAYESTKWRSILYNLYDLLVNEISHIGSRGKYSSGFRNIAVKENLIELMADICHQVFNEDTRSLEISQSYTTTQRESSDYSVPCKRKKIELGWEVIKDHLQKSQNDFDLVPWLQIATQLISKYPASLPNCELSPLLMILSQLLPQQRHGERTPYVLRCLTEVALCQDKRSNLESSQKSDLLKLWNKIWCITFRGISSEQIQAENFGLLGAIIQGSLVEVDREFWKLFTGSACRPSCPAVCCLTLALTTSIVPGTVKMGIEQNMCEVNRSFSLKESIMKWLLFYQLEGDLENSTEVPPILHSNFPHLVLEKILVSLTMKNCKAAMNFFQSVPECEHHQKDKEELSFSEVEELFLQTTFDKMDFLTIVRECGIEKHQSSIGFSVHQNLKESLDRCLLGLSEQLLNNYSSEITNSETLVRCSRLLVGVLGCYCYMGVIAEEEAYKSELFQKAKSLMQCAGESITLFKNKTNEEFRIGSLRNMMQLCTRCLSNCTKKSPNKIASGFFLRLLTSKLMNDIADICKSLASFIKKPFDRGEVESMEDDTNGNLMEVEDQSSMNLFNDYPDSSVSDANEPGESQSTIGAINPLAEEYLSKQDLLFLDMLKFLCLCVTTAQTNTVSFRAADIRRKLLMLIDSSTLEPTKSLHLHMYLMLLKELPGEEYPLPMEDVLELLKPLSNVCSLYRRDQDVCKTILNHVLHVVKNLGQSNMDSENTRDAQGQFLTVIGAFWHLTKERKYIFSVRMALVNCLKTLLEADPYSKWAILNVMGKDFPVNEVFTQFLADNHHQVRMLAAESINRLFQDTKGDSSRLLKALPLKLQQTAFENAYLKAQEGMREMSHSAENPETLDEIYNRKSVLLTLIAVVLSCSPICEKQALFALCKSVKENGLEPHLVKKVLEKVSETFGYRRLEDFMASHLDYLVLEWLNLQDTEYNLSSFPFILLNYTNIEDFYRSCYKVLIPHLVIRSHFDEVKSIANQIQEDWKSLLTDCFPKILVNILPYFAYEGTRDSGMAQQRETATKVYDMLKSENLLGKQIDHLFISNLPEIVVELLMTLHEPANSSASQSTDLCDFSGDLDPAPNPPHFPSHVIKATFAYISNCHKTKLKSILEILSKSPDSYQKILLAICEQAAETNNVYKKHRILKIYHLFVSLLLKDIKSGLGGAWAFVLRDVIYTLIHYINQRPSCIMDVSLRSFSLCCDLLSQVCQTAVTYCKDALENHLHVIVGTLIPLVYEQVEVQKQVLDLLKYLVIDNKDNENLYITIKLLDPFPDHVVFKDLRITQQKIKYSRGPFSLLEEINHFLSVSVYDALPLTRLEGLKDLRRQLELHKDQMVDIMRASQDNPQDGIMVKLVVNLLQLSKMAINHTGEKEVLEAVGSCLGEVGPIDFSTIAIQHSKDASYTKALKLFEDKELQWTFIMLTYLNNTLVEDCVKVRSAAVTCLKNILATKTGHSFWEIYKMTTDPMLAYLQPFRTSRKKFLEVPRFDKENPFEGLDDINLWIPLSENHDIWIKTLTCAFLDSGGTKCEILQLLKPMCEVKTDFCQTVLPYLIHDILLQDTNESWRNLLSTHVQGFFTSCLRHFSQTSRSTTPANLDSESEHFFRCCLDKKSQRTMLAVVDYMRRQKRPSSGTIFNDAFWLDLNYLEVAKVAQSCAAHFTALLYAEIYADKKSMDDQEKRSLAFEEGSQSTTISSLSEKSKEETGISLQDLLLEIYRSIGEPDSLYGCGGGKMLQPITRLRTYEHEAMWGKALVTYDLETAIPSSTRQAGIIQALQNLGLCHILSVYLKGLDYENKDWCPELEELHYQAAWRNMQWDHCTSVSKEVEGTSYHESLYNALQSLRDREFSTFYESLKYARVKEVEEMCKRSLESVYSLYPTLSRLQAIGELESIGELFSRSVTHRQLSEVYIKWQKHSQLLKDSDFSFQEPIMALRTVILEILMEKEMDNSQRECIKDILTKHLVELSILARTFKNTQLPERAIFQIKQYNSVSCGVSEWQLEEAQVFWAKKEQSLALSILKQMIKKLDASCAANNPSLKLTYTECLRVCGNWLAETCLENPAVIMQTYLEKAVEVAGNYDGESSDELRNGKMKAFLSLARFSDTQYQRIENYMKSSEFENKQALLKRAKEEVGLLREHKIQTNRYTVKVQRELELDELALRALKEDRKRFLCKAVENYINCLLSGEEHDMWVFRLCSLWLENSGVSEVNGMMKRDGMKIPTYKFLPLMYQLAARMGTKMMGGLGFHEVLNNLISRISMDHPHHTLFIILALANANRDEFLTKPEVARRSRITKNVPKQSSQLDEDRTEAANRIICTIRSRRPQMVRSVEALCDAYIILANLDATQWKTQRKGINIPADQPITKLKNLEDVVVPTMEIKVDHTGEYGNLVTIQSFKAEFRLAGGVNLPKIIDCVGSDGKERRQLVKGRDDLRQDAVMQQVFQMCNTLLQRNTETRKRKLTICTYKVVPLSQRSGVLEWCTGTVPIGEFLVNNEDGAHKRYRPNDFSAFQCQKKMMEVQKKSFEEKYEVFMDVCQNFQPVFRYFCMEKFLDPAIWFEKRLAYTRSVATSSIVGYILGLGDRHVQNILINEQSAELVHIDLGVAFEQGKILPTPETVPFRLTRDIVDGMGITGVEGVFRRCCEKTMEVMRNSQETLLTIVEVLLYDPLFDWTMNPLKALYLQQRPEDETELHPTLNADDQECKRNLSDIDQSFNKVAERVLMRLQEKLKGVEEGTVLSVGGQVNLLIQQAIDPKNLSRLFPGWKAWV

IC50 | SMILES
> 100 nM | CC(C)Oc1cc(-c2ccc3ncc4c(c3c2)C2(CC2)C(=O)N4C)cnc1OCCCN(C)C [Example 38, 8′-(6-(3-(Dimethylamino)propoxy)-5-isopropoxypyridin-3-yl)-3′-methylspiro[cyclopropane-1,1′-pyrrolo[2,3-c]quinolin]-2′(3′-H)-one]
> 100 nM | CN1C(=O)C2(CC2)c2c1cnc1ccc(-c3cncc(C(C)(C)O)c3)cc21 [Example 25, 8′-(5-(2-Hydroxypropan-2-yl)pyridin-3-yl)-3 methylspiro[cyclopropane-1,1′-pyrrolo[2,3-c]quinolin]-2′(3′-H)-one]
> 100 nM | CN1C(=O)C2(CCC2)c2c1cnc1ccc(-c3cnc(OCC(CO)N4CCCCC4)c(NS(C)(=O)=O)c3)cc21 (stereo not shown) [Example 284, N-(2-(3-Hydroxy-2-(piperidin-1-yl)propoxy)-5-(3′-methyl-2′-oxo-2′,3′-dihydrospiro[cyclobutane-1,1′-pyrrolo[2,3-c]quinolin]-8′-yl)pyridin-3-yl)methanesulfonamide]
> 100 nM | CN1C(=O)C2(CC2)c2c1cnc1ccc(-c3cnc(Cl)c(C(C)(C)O)c3)cc21 [Example 28, 8′-(6-Chloro-5-(2-hydroxypropan-2-yl)pyridin-3-yl)-3′-methylspiro[cyclopropane-1,1′-pyrrolo[2,3-c]quinolin]-2′(3′-H)-one]
1 to 100 nM | CN(C)CCCOc1ncc(-c2ccc3ncc4c(c3c2)C2(CCC2)C(=O)N4C)cc1S(N)(=O)=O [Example 255, 2-(3-(Dimethylamino)propoxy)-5-(3′-methyl-2′-oxo-2′,3′-dihydrospiro[cyclobutane-1,1′-pyrrolo[2,3-c]quinolin]-8′-yl)pyridine-3-sulfonamide]
1 to 100 nM | CN(C)c1ccc(-c2ncc(-c3ccc4ncc5c(c4c3)C3(CCC3)C(=O)N5C)cc2NS(C)(=O)=O)cn1 [Example 271, N-(6′-(Dimethylamino)-5-(3′-methyl-2′-oxo-2′,3′-dihydrospiro[cyclobutane-1,1′-pyrrolo[2,3-c]quinolin]-8′-yl)-[2,3′-bipyridin]-3-yl)methanesulfonamide]
> 100 nM | COc1ncc(-c2ccc3ncc(Nc4ccn(C)n4)c(=O)n3c2)cc1NS(=O)(=O)c1ccccc1 [Example 16, N-(2-Methoxy-5-(3-((1-methyl-1H-pyrazol-3-yl)amino)-4-oxo-4H-pyrido[1,2-a]pyrimidin-7-yl)pyridin-3-yl)benzenesulfonamide]

Same assay, conditions: pKAP1 in etoposide-treated MCF-7 cells

IC50 | SMILES
1 to 100 nM | CC(C)NCCOc1ncc(-c2cc3c(cc2F)ncc2c3[C@]3(C[C@@H](COC(C)C)C3)C(=O)N2C)cc1NS(=O)(=O)C(C)C [Example 413, trans-N-{5-(7′-Fluoro-3-(isopropoxymethyl)-3′-methyl-2′-oxo-2′,3′-dihydrospiro[cyclobutane-1,1′-pyrrolo[2,3-c]quinolin]-8′-yl)-2-(2-(isopropylamino)ethoxy)pyridin-3-yl)propane-2-sulfonamide]
1 to 100 nM | CC(C)NCCOc1ncc(-c2cc3c(cc2F)ncc2c3[C@]3(C[C@@H](N(C)C)C3)C(=O)N2C)cc1NS(C)(=O)=O [Example 466, trans-N-(5-{3-(Dimethylamino)-7′-fluoro-3′-methyl-2′-oxo-2′,3′-dihydrospiro[cyclobutane-1,1′-pyrrolo[2,3-c]quinolin]-8′-yl)-2-(2-(isopropylamino)ethoxy)pyridin-3-yl)methanesulfonamide]
> 100 nM | CN1C(=O)C2(CCC2)c2c1cnc1cc(F)c(-c3cnc(OCCNCC(F)(F)F)c(NS(C)(=O)=O)c3)cc21 [Example 378, N-(5-(7′-Fluoro-3′-methyl-2′-oxo-2′,3′-dihydrospiro [cyclobutane-1,1′-pyrrolo[2.3-c]quinolin]-8′-yl)-2-(2-((2,2,2-trifluoroethyl)amino)ethoxy)pyridin-3-yl) methanesulfonamide hydrochloride]
> 100 nM | CC(C)NCCOc1ncc(-c2cc3c4c(cnc3cc2F)N(C)C(=O)C42CN([C@H](C)c3ccccc3)C2)cc1NS(C)(=O)=O [Example 494]
> 100 nM | CN1C(=O)C2(CCC2)c2c1cnc1cc(F)c(-c3cnc(OCCNCC(F)F)c(NS(C)(=O)=O)c3)cc21 [Example 379, N-(2-(2-((2,2-Difluoroethyl)amino)ethoxy)-5-(7fluoro-3′-methyl-2′-oxo-2′,3′-dihydrospiro[cyclobutane-1,1′-pyrrole[2,3-c]quinolin]-8′-yl)pyridin-3-yl) methanesulfonamide]
> 100 nM | CC(C)NCCOc1ncc(-c2cc3c(cc2F)ncc2c3[C@]3(C[C@@H](c4cccc(=O)[nH]4)C3)C(=O)N2C)cc1NS(C)(=O)=O [Example 441, trans-N-(5-(7′-Fluoro-3′-methyl-2′-oxo-3-(6-oxo-1,6-dihydropyridin-2-yl)-2′,3′-dihydrospiro[cyclobutane-1,1′-pyrrolo[2,3-c]quinolin]-8′-yl)-2-(2-(isopropylamino)ethoxy)pyridin-3-yl)methanesulfonamide]
1 to 100 nM | CC(C)CN1CC2(C1)C(=O)N(C)c1cnc3cc(F)c(-c4cnc(OCCNC(C)C)c(NS(C)(=O)=O)c4)cc3c12 [Example 491, N-(5-(7′-Fluoro-1-isobutyl-3′-methyl-2′-oxo-2′,3′-dihydrospiro[azetidine-3,1′-pyrrolo[2,3-c]quinolin]-8′-yl)-2-(2-(isopropylamino)ethoxy)pyridin-3-yl)methanesulfonamide]
1 to 100 nM | CC(C)NCCOc1ncc(-c2cc3c4c(cnc3cc2F)N(C)C(=O)C42CC(F)C2)cc1NS(C)(=O)=O (stereo not drawn) [Example 560, cis-N-(5-(3,7′-Difluoro-3′-methyl-2′-oxo-2′,3′-dihydrospiro[cyclobutane-1,1′-pyrrolo[2,3-c]quinolin]-8′-yl)-2-(2-(isopropylamino)ethoxy)pyridin-3-yl)methanesulfonamide]
1 to 100 nM | CC(C)NCCOc1ncc(-c2cc3c(cc2F)ncc2c3[C@]3(C[C@@H](COC(C)C)C3)C(=O)N2C)cc1NS(C)(=O)=O [Example 411, trans-N-{5-(7′-Fluoro-3-(isopropoxymethyl)-3′-methyl-2′-oxo-2′,3′-dihydrospiro[cyclobutane-1,1′-pyrrolo[2,3-c]quinolin]-8′-yl)-2-(2-(isopropylamino)ethoxy)pyridin-3-yl)methanesulfonamide]
1 to 100 nM | CC(C)NCCOc1ncc(-c2cc3c4c(cnc3cc2F)N(C)C(=O)C42CN(C3CCOCC3)C2)cc1NS(C)(=O)=O [Example 500, N-(5-(7′-Fluoro-3′-methyl-2′-oxo-1-(tetrahydro-2H-pyran-4-yl)-2′,3′-dihydrospiro[azetidine-3,1′-pyrrolo[2,3-c]quinolin]-8′-yl)-2-(2-(isopropylamino)ethoxy)pyridin-3-yl)methanesulfonamide hydrochloride]
1 to 100 nM | CN1C(=O)C2(CN(CC(F)(F)F)C2)c2c1cnc1ccc(-c3cnc(N4CC(N(C)C)C4)c(NS(C)(=O)=O)c3)cc21 [Example 480]
> 100 nM | CC(=O)N1CC2(C1)C(=O)N(C)c1cnc3cc(F)c(-c4cnc(OCCNC(C)C)c(NS(C)(=O)=O)c4)cc3c12 [Example 511, N-(5-(1-Acetyl-7′-fluoro-3′-methyl-2′-oxo-2′,3′-dihydrospiro[azetidine-3,1′-pyrrolo[2,3-c]quinolin]-8′-yl)-2-(2-(isopropylamino)ethoxy)pyridin-3-yl)methanesulfonamide]
